Laboratory results from US12440571B2, “Immune agonists” (SHENZHEN UNIVERSITY, priority 2020, dated 2025).
Where two headings read alike, the source gives them in different places.

Columns and labels:
Format in all cases: cell-based
TLR7 = molecular target: T1, TLR7 (Homo sapiens, UniProt Q9NYK1); test: Detection of TLR7 activation (HEK-Blue Detection), SEAP reporter; settings: for EC50: HEK-Blue hTLR7 cells, 6-16 hrs, absorbance 650 nm
T1 construct: host or cells: HEK-Blue hTLR7 cells (HEK293-derived SEAP reporter line)
T1 sequence (Q9NYK1 27-1049): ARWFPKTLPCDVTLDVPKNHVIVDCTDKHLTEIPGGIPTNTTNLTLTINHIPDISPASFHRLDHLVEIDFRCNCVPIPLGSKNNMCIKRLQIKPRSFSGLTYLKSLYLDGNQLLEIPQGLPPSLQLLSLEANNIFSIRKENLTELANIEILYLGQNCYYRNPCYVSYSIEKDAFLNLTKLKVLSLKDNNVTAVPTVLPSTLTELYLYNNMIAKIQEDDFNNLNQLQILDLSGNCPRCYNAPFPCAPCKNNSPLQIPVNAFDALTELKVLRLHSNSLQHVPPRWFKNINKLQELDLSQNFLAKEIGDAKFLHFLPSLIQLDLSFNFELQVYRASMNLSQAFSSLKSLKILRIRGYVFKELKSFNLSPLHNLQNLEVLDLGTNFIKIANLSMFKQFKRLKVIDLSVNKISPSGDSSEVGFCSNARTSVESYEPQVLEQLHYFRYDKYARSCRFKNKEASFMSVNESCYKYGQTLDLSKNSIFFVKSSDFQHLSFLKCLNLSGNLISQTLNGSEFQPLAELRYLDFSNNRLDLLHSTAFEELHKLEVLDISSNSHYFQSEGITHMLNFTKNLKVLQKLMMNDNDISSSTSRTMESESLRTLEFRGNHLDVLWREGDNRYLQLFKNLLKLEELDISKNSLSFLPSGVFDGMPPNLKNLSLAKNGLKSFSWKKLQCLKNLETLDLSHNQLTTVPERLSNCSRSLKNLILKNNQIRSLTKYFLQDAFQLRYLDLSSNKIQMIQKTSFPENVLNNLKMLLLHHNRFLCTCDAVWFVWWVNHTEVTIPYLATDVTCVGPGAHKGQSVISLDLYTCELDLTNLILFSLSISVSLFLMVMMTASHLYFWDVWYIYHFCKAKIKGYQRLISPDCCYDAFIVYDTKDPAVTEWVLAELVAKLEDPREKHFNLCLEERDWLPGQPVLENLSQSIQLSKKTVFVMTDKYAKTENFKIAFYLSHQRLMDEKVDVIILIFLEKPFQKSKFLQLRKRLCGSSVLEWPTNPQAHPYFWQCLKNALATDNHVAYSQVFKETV
Experimental: HEK-Blue™hTLR7 cells (purchased from InvivoGen) in a logarithmic growth phase were taken, with a growth medium (Gibco, C11995500BT, Invivo Gen, ant-nr) discarded. The cells were gently rinsed twice by an appropriate amount of 37° C. PBS (Hyclone, SH30256.01), a rinsed PBS was discarded. Thereafter, the cells were added with 2-5 mL of 37° C. PBS, incubated for 1 to 2 minutes, and then scraped by a cell scraper and gently pipetted to be dispersed into a single cell suspension. A hemocytometer was adopted to count the cells and a cell concentration was calculated. After that, a HEK-Blue™ Detection solution (purchased from Invivo Gen) was adopted to adjust the cell concentration of the cell suspension to 2.5×10^4/180 μL per well for cell plating on a 96-well cell culture plate. The HEK-Blue™hTLR7 cells were stimulated according to the designed series of GY compound or drug concentrations (0.01 μM, 0.1 μM, 1 μM, 5 μM, 15 μM, and 30 μM), with 3 replicate wells for each concentration, and were incubated at 37° C., 5% carbon dioxide for 6-16 hrs. After the incubation, the absorbance value was read at 650 nm with a full-wavelength microplate reader (BioTek-Epoch), as listed in Table 2.
Relative induction=(average OD value of experimental group−average OD value of negative control group)/average OD value of negative control group.
Specific details for the above method may be referred to https: • //www.invivogen.com/hek-blue-htlr7; https://www.invivogen.com/sites/default/files/invivogen/products/files/hek_blue_htlr7_tds.pdf.

[1] = system: human lymphoma Daudi B cells; test: CCK8 growth inhibition, Daudi B; settings: CCK8 method; read-out: IC50 of inhibitory activity on tumor cell growth, Daudi B
[2] = system: human lymphoma Raji cells; test: CCK8 growth inhibition, Raji; settings: CCK8 method, read-out: IC50 of inhibitory activity on tumor cell growth, Raji
[3] = system: human leukemia HL-60 cells; test: CCK8 growth inhibition, HL60; settings: read-out: IC50 of inhibitory activity on tumor cell growth, HL60
[4] = system: murine spleen lymphocytes; test: Cytokine stimulation of murine spleen lymphocytes, ELISA; settings: for EC50: Lymphocyte
Experimental: The stimulating effect of a series of GY compounds or drugs on murine spleen lymphocytes was detected by ELISA.
6-week-old Balb/c mice were sacrificed by cervical dislocation, spleens were taken under aseptic conditions. A 1 mL sterile syringe and a 200 mesh cell strainer were adopted to quickly grind and disperse the spleen into individual cells in 4 mL of a murine lymphocyte separation solution (Dakko's, 7211011). A resulting cell homogenate was transferred to a 15 mL centrifuge tube, then 1 mL of a RPMI 1640 medium (Hyclone, SH30809.01) was slowly added. Spleen lymphocytes were separated by a density gradient centrifugation method (800×g, 30 min), washed, red blood cells therein were lysed, such that a dispersed spleen lymphocyte suspension was obtained. Cells were counted by a hemocytometer, to calculate the cell concentration. A RPMI 1640 complete medium was adopted to adjust the cell suspension to a concentration of 1×10^6/ml/well, and the cells were then plated on a 24-well cell culture plate (Corning, 3524).
Murine spleen lymphocytes were stimulated according to the gradient concentrations of the series of GY compounds or drugs, and incubated in a 37° C., 5% carbon dioxide incubator for 24 hrs.
• (1) Coating: a Capture antibody (primary antibody, purchased from Invitrogen) was diluted with a 1×Coating Buffer (coating buffer, purchased from Invitrogen) to a recommended concentration, and 100 μL of a resulting diluted solution was added to each well of a 96-well microtiter plate, the plate was sealed with a sealing film at 4° C. overnight. • (2) Washing: a liquid in each well was discarded, then 300 μL of a PBST working solution was added to each well and kept for 1 min, thereafter, the liquid therein was discarded. The washing process was repeated 3 times. • (3) Blocking: 200 μL of a blocking solution was added to each well. The plate was sealed with a sealing film, and placed on a shaker and incubated at room temperature for 1 hr, then washed and patted to be dry. • (4) Sample incubation: a sample was collected and centrifuged to collect a supernatant. Standards, samples, negative controls, and blank controls were provided in the 96-well microtiter plate, and each concentration or sample were provided with 2 replicates. 100 μL of a standard or sample was added to each well, thereafter, the plate was sealed with a sealing film, incubated on a shaker at room temperature for 1 hr or overnight at 4° C., then washed and pated to be dry. • (5) Secondary antibody incubation: the detection antibody (secondary antibody, purchased from Invitrogen) was diluted to a recommended concentration with a dilution buffer, 100 μL of a secondary antibody was added to each well. After being sealed with a sealing film, the plate was incubated on a shaker at room temperature for 1 hr, then washed and patted to be dry. • (6) Avidin-HRP incubation: Avidin-HRP (horseradish peroxidase marker, purchased from Invitrogen) was diluted to the recommended concentration with a dilution buffer, 100 μL of Avidin-HRP was added to each well. After being sealed with a sealing film, the plate was placed on a shaker and incubated at room temperature for 30 mins, washed 5-7 times by the process of step 2), and patted to be dry. • (7) TMB color development: 100 μL of a TMB color development solution (purchased from Invitrogen) was added to each well, for carrying out reaction for 15 mins at room temperature in the dark. • (8) Stopping reaction: 50 μL of 1M H2SO4 solution was added to each well. • (9) Reading an absorbance value by a microplate reader: the OD value at 450 nm wavelength was read. A standard curve and a parameter nonlinear regression equation were drawn, and a sample concentration was calculated according to the obtained formula.

[5] = Homo sapiens, HL-60, CCK8 method
[6] = mouse immune cells (spleen lymphocytes), 24 hrs, ELISA, read-out: IFN-gamma EC50 of cytokine stimulating activity
[7] = mouse immune cells (spleen lymphocytes), 24 hrs, ELISA, read-out: IL-6 EC50 of cytokine stimulating activity
[8] = mouse immune cells (spleen lymphocytes), 24 hrs, ELISA, read-out: TNF-alpha EC50 of cytokine stimulating activity

Structure (SMILES) | EC50 (TLR7; read-out: TLR7(EC50/μM)) [µM] | EC50 [4, 6] [nM] | EC50 [4, 7] [nM] | EC50 [4, 8] [nM] | also measured
CCCCOc1nc(N)c2nc(O)n(Cc3cn(CCOCCOCCOCCNC(=S)N4CCC(C5CCNc6c(C(N)=O)c(-c7ccc(Oc8ccccc8)cc7)nn65)CC4)nn3)c2n1 (single isomer, unassigned) [GY134] | 1.99 | – | – | – | IC50 [1]: 6990 nM; IC50 ([2]; Homo sapiens, Raji): 5120 nM
CCCCOc1nc(N)c2nc(O)n(Cc3cn(CCOCCOCCOCCNC(=S)N4CCC(C5CCNc6c(C(N)=O)c(-c7ccc(Oc8ccccc8)cc7)nn65)CC4)nn3)c2n1 (single isomer, unassigned) [GY135] | 9.07 | – | – | – | IC50 [3, 5]: 13100 nM; IC50 [1]: 14600 nM; IC50 [2]: 7600 nM
C=C(CC(=O)NCCOCCOCCOCCn1cc(Cn2c(O)nc3c(N)nc(OCCCC)nc32)nn1)C(=O)N1CCC(C2CCNc3c(C(N)=O)c(-c4ccc(Oc5ccccc5)cc4)nn32)CC1 (single isomer, unassigned) [GY137] | 2.92 | – | – | – | IC50 ([3]; CCK8 method): 27000 nM; IC50 [1]: 24600 nM; IC50 [2]: 37200 nM
CCOCc1nc2c(N)nc3ccccc3c2n1CC(C)(C)O [Compound R848, Resiquimod, reference compound] | – | 56 | < 1 | < 1 | –
C#CCn1c(O)nc2c(N)nc(OCCCC)nc21 [GY100] | 2.25 | 104 | < 1 | < 1 | TLR7 agonist activity (in words) (TLR7): highly active TLR7 agonist
CCCCOc1nc(N)c2nc(O)n(Cc3cn(CCOCCOCCOCC(=O)O)nn3)c2n1 [GY101] | 0.003 | 122 | 1050 | 7 | –
CCCCOc1nc(N)c2nc(O)n(Cc3cn(CCOCCOCCOCCN)nn3)c2n1 [GY102] | 0.79 | 1070 | 637 | 1440 | –
CCCCOc1nc(N)c2nc(O)n(Cc3cn(CCCCCCCCCCCCP(=O)(O)O)nn3)c2n1 [GY103] | 0.86 | 3340 | 1510 | 2620 | –
CCCCOc1nc(N)c2nc(O)n(Cc3cn(CCOCCOCCOCCN=C=S)nn3)c2n1 [GY106] | – | – | – | – | EC50 (TLR7; TLR7(EC50/μM)): 0.08 µM; EC50 ([4]; Mus musculus, 24 h, read-out: IFN-gamma EC50 of cytokine stimulating activity): 2830 nM; EC50 ([4]; Mus musculus, 24 h, read-out: IL-6 EC50 of cytokine stimulating activity): < 1 nM; EC50 ([4]; Mus musculus, 24 h, read-out: TNF-alpha EC50 of cytokine stimulating activity): < 1 nM
C=C(CC(=O)NCCOCCOCCOCCn1cc(Cn2c(O)nc3c(N)nc(OCCCC)nc32)nn1)C(=O)O [GY109] | 0.65 | 983 | 653 | 153 | –
CCCCOc1nc(N)c2nc(O)n(Cc3cn(CCOCCOCCOCCNC(=O)CCC(=O)Nc4cccc5c4CN(C4CCC(=O)NC4=O)C5=O)nn3)c2n1 (stereo not shown) [GY110] | 3.17 | – | – | – | –
CCCCOc1nc(N)c2nc(O)n(Cc3cn(CCOCCOCCOCCNC(=O)c4cc(/N=N/c5ccc(S(=O)(=O)Nc6ccccn6)cc5)ccc4O)nn3)c2n1 [GY113] | 1.87 | – | – | – | –
CCCCOc1nc(N)c2nc(O)n(Cc3cn(CCOCCOCCOCCNC(=O)c4cc5c(Oc6ccc(NC(=O)NC7CC7)c(Cl)c6)ccnc5cc4OC)nn3)c2n1 [GY114] | 1.98 | – | – | – | –
CCCCOc1nc(N)c2nc(O)n(Cc3cn(CCOCCOCCOc4c(OC)cc(/C=C/C(=O)N5CCC=CC5=O)cc4OC)nn3)c2n1 [GY117] | 0.22 | – | – | – | IC50 [3, 5]: 19000 nM
CCCCOc1nc(N)c2nc(O)n(Cc3cn(CCOCCOCCOCCNC(=S)NC(CCC(=O)NC(CS)C(=O)NCC(=O)O)C(=O)O)nn3)c2n1 (stereo not shown) [GY126] | 0.92 | – | – | – | –
CCCCOc1nc(N)c2nc(O)n(Cc3cn(CCCCCCCCCCCCCCC(=O)O)nn3)c2n1 [GY145] | 0.29 | – | – | – | –
CCCCOc1nc(N)c2nc(O)n(Cc3cn(CCOCCOCCOCC(=O)NO)nn3)c2n1 [GY163] | – | 7860 | 1100 | 58 | –
CCCCOc1nc(N)c2nc(O)n(Cc3cn(CCOCCOCCOCCNC(=S)NNCCc4ccccc4)nn3)c2n1 [GY164] | – | 10 | 5930 | 1 | –
CC(C)Cn1cnc2c(N)nc3ccccc3c21 [Imiquimod, reference compound] | – | – | 8300 | 8350 | IFN-gamma EC50 of cytokine stimulating activity ([4]; mouse immune cells (spleen lymphocytes), 24 hrs, ELISA): No fit
